Reference: publication PMC5750218, “Protein-inspired antibiotics active against vancomycin- and daptomycin-resistant bacteria” (Nature Communications, 2018)
≈ marks a conversion by molar mass, not a printed value. Like-named read-outs stand apart in the source and are kept apart here.

Tests used:
[1] = test system: Vancomycin-resistant (VanA) Enterococcus faecium ATCC 51559; experiment: microbe, parasite or virus in culture
Method in brief: (§1)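 Compounds were serially diluted twofold from 8 to 0.003 µg mL^−1 in Mueller Hinton broth. Inocula came from overnight cultures diluted 40-fold and grown a further 2–3 h.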

[2] = test system: Multi-drug-resistant S. pneumoniae ATCC 700677; experiment: microbe, parasite or virus in culture
Method in brief: as §1

[3] = test system: Vancomycin-intermediate S. aureus NRS1; experiment: microbe, parasite or virus in culture
Method in brief: as §1

[4] = Cytotoxicity MTT assay; format: cell-based, human; details: human
Method in brief: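 HepG2 and HEK293 cells, 1.5 × 10^4 per well in DMEM with 1% FBS, were allowed to attach for 24 h, then exposed 24 h at 37 °C to compounds at 100 µM to 0.046 µM in threefold steps. MTT (0.4 mg mL^−1) was added for 2 h, and formazan in DMSO was read at 570 nm. Viability is given as percent of control, corrected for a positive control.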

[5] = test system: S. aureus ATCC 43300; experiment: Membrane permeability assay (propidium iodide); format: cell-based, Staphylococcus aureus
Description: To evaluate the ability of the compounds to disrupt the cytoplasmic membrane integrity, the membrane impermeable fluorescent DNA intercalating dye propidium iodide (PI) was used. Early exponential phase cells were pelleted and washed twice in 10 mM HEPES buffer (pH 7.4) containing 50 µg mL^−1 of CaCl2 and 5 mM glucose, and then re-suspended in the same buffer (4 × 10^8 CFU mL^−1). Cell suspension was added to a 384-well black walled polystyrene plate (Corning, CLS3573) containing compounds, giving a final concentration of 16 µg mL^−1. After 1 h incubation at 37 °C, 5 µg mL^−1 of PI was added and fluorescence was monitored for 90 min using a Tecan Infinite® m1000 Pro Multi-mode reader (excitation/emission 535/620 nm). Data were corrected by subtraction of fluorescence signal arising from untreated cells in the presence of PI. […] Each sample was tested in quadruplicate and independent assays were performed twice showing similar results. Data was analysed and presented using Prism software.

[6] = Cytotoxicity MTT assay; format: cell-based, human; details: human; remark: listed apart in the source
[7] = test system: Methicillin-resistant S. aureus ATCC 43300; experiment: microbe, parasite or virus in culture; details: for MIC: Staphylococcus aureus, ATCC43300|MRSA
Method in brief: as §1

[8] = test system: Vancomycin-resistant S. aureus NARSA VRS4; experiment: microbe, parasite or virus in culture; format: cell-based, Staphylococcus aureus

## CN[C@H](CC(C)C)C(=O)N[C@H]1C(=O)N[C@@H](CC(N)=O)C(=O)N[C@H]2C(=O)N[C@H]3C(=O)N[C@H](C(=O)N[C@H](C(=O)O)c4cc(O)cc(O)c4-c4cc3ccc4O)[C@H](O)c3ccc(c(Cl)c3)Oc3cc2cc(c3O[C@@H]2O[C@H](CO)[C@@H](O)[C@H](O)[C@H]2O[C@H]2C[C@](C)(N)[C@H](O)[C@H](C)O2)Oc2ccc(cc2Cl)[C@H]1O [Compound 1, Vancomycin]
[1]; Enterococcus faecium, ATCC51559 / VRE, read-out: MIC VRE
  MIC: > 64 µg/mL
[2]; Streptococcus pneumoniae, ATCC700677, read-out: MIC MDR S.P.
  MIC: 1 µg/mL (≈ 0.69 µM)
[3]; Staphylococcus aureus, NRS1 / VISA, read-out: MIC VISA
  MIC: 4 µg/mL (≈ 2.76 µM)
[4]; 24 h, MTT, 1% FBS, read-out: Cytotoxicity CC50 HEK293
  CC50 at 24 h: 5.9 mM
[5]; 16 µg mL^−1, 1 h, MRSA ATCC 43300
  Membrane permeabilisation (propidium iodide fluorescence): little to no effect
[6]; 24 h, MTT, 1% FBS, read-out: Cytotoxicity CC50 HepG2
  CC50 at 24 h: 6.3 mM
[7]; 24 h, read-out: MIC MRSA, S. aureus ATCC 43300, NBS plates, MHB, 24 h, substance alone
  MIC: 1 µg/mL (≈ 0.69 µM)
[7]; read-out: MIC S. aureus ATCC 43300 MRSA, NBS, non-binding surface plate
  MIC: 1 µg/mL (≈ 0.69 µM)
[7]; read-out: MIC S. aureus ATCC 43300 MRSA, PP, polypropylene plate
  MIC: 2 µg/mL (≈ 1.38 µM)
[7]; read-out: MIC S. aureus ATCC 43300 MRSA, PS+P-80, polystyrene plate with 0.002% polysorbate-80
  MIC: 2 µg/mL (≈ 1.38 µM)
[7]; read-out: MIC S. aureus ATCC 43300 MRSA, PS, polystyrene plate, no polysorbate-80
  MIC: 2 µg/mL (≈ 1.38 µM)
[8]; Staphylococcus aureus, VRSA, read-out: MIC VRSA
  MIC: > 64 µg/mL

## CCCCCCCCCCC(=O)N[C@@H](CCCCN)C(=O)N[C@@H](CCCCN)C(=O)N[C@@H](CCCCNC(=O)[C@H]1NC(=O)[C@H]2NC(=O)[C@H](NC(=O)[C@@H]3NC(=O)[C@H](CC(N)=O)NC(=O)[C@H](NC(=O)[C@@H](CC(C)C)NC)[C@H](O)c4ccc(c(Cl)c4)Oc4cc3cc(c4O[C@@H]3O[C@H](CO)[C@@H](O)[C@H](O)[C@H]3O[C@H]3C[C@](C)(N)[C@H](O)[C@H](C)O3)Oc3ccc(cc3Cl)[C@H]2O)c2ccc(O)c(c2)-c2c(O)cc(O)cc21)C(=O)O [Compound 19, nC10CO-KK-K(Vancomycin)-OH]
[1]; ATCC 51559
  MIC VRE: 6 µg/mL (≈ 3 µM)
[2]; ATCC 700677
  MIC MDR S.P.: 0.06 µg/mL (≈ 0.03 µM)
[3]; Vancomycin-intermediate NRS1
  MIC VISA: 0.5 µg/mL (≈ 0.25 µM)
[4]
  CC50 at 24 h: 0.355 mM
[5]
  Membrane permeabilisation (propidium iodide fluorescence): little to no effect
[6]
  CC50 at 24 h: 0.29 mM
[7]; ATCC 43300
  MIC S. aureus ATCC 43300 MRSA, NBS: ≤ 0.016 µg/mL
  MIC S. aureus ATCC 43300 MRSA, PP: 0.06 to 0.125 µg/mL
  MIC S. aureus ATCC 43300 MRSA, PS: 0.063 µg/mL (≈ 0.0315 µM)
  MIC S. aureus ATCC 43300 MRSA, PS+P-80: 0.063 µg/mL (≈ 0.0315 µM)
[7]; ATCC 43300, 24 h
  MIC MRSA: 0.03 µg/mL (≈ 0.015 µM)
[8]; Vancomycin-resistant NARSA VRS4
  MIC VRSA: 1 µg/mL (≈ 0.499 µM)
